Laboratory results published in patent US6821991B2, “2-substituted thiazolidinones as β-3 adrenergic receptor agonists” (Wyeth, priority 2000, dated 2004).
pEC50: −log10 of the molar value.

What was measured:
β3-adrenergic receptor = molecular target: T1, β3-adrenergic receptor (Homo sapiens, UniProt P13945); test: cAMP accumulation (SPA) in CHO cells transfected with human β3 adrenergic receptor; type: cell-based; conditions: for pEC50: CHO cells expressing human β3-AR, cAMP, 30 min, 37° C., 10^-9 M to 10^-5 M; for IA(β3): maximal response relative to maximal response of isoproterenol at 10^-5 M
T1 construct: Full length β3 AR clones (402 amino acids) containing the last 6 amino acids of hβ3-AR are prepared; expressed in transfected cells; host or cells: CHO (Chinese hamster ovary) cells
T1 sequence (P13945 whole entry): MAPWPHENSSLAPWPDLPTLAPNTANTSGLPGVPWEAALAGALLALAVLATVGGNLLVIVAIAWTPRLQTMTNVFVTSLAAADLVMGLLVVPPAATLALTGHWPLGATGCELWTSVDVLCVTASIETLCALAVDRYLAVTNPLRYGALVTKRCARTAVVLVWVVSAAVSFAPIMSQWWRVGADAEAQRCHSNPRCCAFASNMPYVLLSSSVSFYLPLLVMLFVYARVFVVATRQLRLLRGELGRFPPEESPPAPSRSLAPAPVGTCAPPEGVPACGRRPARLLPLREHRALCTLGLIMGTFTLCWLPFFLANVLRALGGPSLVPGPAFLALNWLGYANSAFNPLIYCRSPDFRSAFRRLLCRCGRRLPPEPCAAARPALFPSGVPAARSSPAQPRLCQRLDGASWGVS
Experimental: The ability of compounds of this invention to treat or inhibit disorders related to insulin resistance or hyperglycemia was established with representative compounds of this invention in the following standard pharmacological test procedures, which measured the binding selectivity to the β1, β2, and β3 adrenergic receptors. Binding to the receptors was measured in Chinese Hamster ovary (CHO) cells that were transfected with adrenergic receptors.
Cloning of Human β3-AR Genomic DNA: CDNA was constructed by ligating four polymerase chain reaction (PCR) products using the following primers: an ATG-Narl fragment, sense primer 5′-[…]3′, and anti-sense primer 5′[…]3′; a Narl-Accl fragment, 5′[…]3′ as sense and 5′[…]3′ as anti-sense primer; an Accli-Styl fragment, sense primer 5′[…]3′ and anti-sense primer 5′[…]3′ and a Styl-TAG fragment, with sense primer 5′[…]3′ and anti-sense primer 5′[…]3′. The corresponding primer sequences are described in Mantzoros, C. […] The four fragments are ligated into a pUC 18 plasmid (Gibco-BRL) and sequenced.
Binding Procedure: Clones expressing receptor levels of 70 to 110 fmoles/mg protein were used in the test procedures. CHO cells were grown in 24-well tissue culture plates in Dulbecco's Modified Eagle Media with 10% fetal bovine serum, MEM non-essential amino acids, Penicillin-Streptompycin and Geneticin. On the day of test procedure, growth medium was replaced with preincubation media (Dulbecco's Modified Eagle Media) and incubated for 30 minutes at 37° C. […] Test compounds were tested over a concentration range of 10^−9 M to 10^−5 M for β3 cells and 10^−8 to 10^−4 M for β1 and β2 transfected cells. Isoproterenol (10^−5 M) was used as an internal standard for comparison of activity. Cells were incubated at 37° C. on a rocker for 30 min with the β3 cells and 15 min for β1 and β2 cells. Incubation was stopped with the addition of 0.2N HCl and neutralized with 2.5N NaOH. The plates, containing the cells and neutralized media, were stored at −20 degrees celsius until ready to test for cAMP using the SPA test kit (Amersham).
Data Analysis and Results: Data collected from the SPA test procedure were analyzed as per cent of the maximal isoproterenol response at 10^−5 M. Activity curves were plotted using the SAS statistical and graphics software.

| pEC50 (β3-adrenergic receptor) | IA(β3) (β3-adrenergic receptor) | melting point | Structure (SMILES) |
| --- | --- | --- | --- |
| 7.40 | 0.58 | > 160 °C (dec.) | Cl.Cl.O=C1N=C(N2CCOCC2)SC1=Cc1ccc(N2CCC(NC[C@H](O)COc3ccccc3)CC2)cc1 [Example 22, 5-{4-[4-((2S)-2-Hydroxy-3-phenoxy-propylamino)-piperidin-1-yl]-benzylidene}-2-morpholin-4-yl-thiazol-4-one dihydrochloride salt] |
| 7.72 | 0.69 | 201 to 213 °C (dec.) | O=C1N=C(NO)SC1=Cc1ccc(N2CCC(NC[C@H](O)COc3cccc4[nH]c(=O)[nH]c34)CC2)cc1 [Example 10, 4-((2S)-2-Hydroxy-3-{1-[4-(2-hydroxyamino-4-oxo-4H-thiazol-5-ylidenemethyl)-phenyl]-piperidin-4-ylamino}-propoxy)-1,3-dihydro-benzoimidazol-2-one] |
| 7.12 | 0.96 | > 85 °C (dec.) | O=C1N=C(N2CCCCC2)SC1=Cc1ccc(N2CCC(NC[C@H](O)COc3ccc(O)cc3)CC2)cc1 [Example 16, 5-(4-{4-[(2S)-2-Hydroxy-3-(4-hydroxy-phenoxy)-propylamino]-piperidin-1-yl}-benzylidene)-2-piperidin-1-yl-thiazol-4-one] |
